Results on 11 compounds are retold here after PubChem BioAssay (NCI).

“And” between values parts separate entries of the source, which are not always exact repeats. Identical values can stand only once.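 In this assay, cells in 96-well plates receive the compound at five concentrations for 48 hours. Endpoints are linearly interpolated between the surrounding concentrations. GI50 marks 50% less growth. At the TGI there is no net growth.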

Test systems include CCRF-CEM leukemia; EKVX NSCLC; HT29 colon; MOLT-4 leukemia; NCI-H23 lung; RPMI-8226 leukemia; RXF 393 renal; SNB-75 CNS; U251 CNS; UACC-62 melanoma.
Common to all, as to experiment: NCI tumour cell line growth inhibition, 48 h

For the compound `COC(=O)Nc1nc2ccc(C(=O)c3cccs3)cc2[nH]1`, the GI50 is 0.124 µM in the test on CCRF-CEM leukemia; 0.584 µM in the test with EKVX NSCLC; 0.0552 µM with HT29 colon; 0.269 µM in the test with MOLT-4 leukemia; 0.277 µM in the test with NCI-H23 lung; 0.407 µM with RPMI-8226 leukemia. The GI50 is < 0.0192 µM and 0.171 µM in the test with SNB-75 CNS; 0.147 µM in the test with U251 CNS; 0.189 µM in the test on UACC-62 melanoma. Further, the TGI was 19.8 µM and > 100 µM in the test with CCRF-CEM leukemia; 15.2 µM and > 100 µM in the test on EKVX NSCLC; 13 µM and > 100 µM with MOLT-4 leukemia; 0.602 µM in the test with NCI-H23 lung; 1.36 µM in the test on RXF 393 renal; more than 100 µM in the test with SNB-75 CNS. For the same compound, in the test with UACC-62 melanoma, the TGI was 65.4 µM and > 100 µM.
On to `Cc1nc2sc(C(=O)Nc3ccccc3)c(N)c2cc1C(=O)c1ccccc1`, for which the GI50 in the test on CCRF-CEM leukemia is 1.69 µM; in the test on EKVX NSCLC it was 2.74 µM; with HT29 colon it was 1.75 µM; in the test on MOLT-4 leukemia it was 2 µM; with NCI-H23 lung, 3.99 µM; in the test on RPMI-8226 leukemia, 1.86 µM. For the same compound, the GI50 in the test on RXF 393 renal is 1.83 µM; in the test on SNB-75 CNS it was 1.87 µM; in the test on U251 CNS it was 2.09 µM; with UACC-62 melanoma, 2.12 µM. In addition, the TGI is more than 50 µM in the test with CCRF-CEM leukemia; more than 50 µM in the test on EKVX NSCLC; 9.54 µM in the test on HT29 colon; more than 50 µM in the test with MOLT-4 leukemia; more than 50 µM in the test on NCI-H23 lung; more than 50 µM in the test on RPMI-8226 leukemia. Further, the TGI with RXF 393 renal was 34.3 µM; with SNB-75 CNS, more than 50 µM; in the test with U251 CNS it was more than 50 µM; in the test with UACC-62 melanoma, more than 50 µM.
On to `Cc1nc(-n2nc(-c3ccccc3)cc2-c2ccccc2)sc1C(=O)CC(=O)C(=O)Nc1ccc(O)cc1`, for which the TGI with CCRF-CEM leukemia, in the test on EKVX NSCLC, in the test with HT29 colon, in the test on MOLT-4 leukemia, in the test with NCI-H23 lung and in the test on RPMI-8226 leukemia was more than 100 µM throughout. The TGI in the test with RXF 393 renal, in the test with SNB-75 CNS, with U251 CNS and in the test on UACC-62 melanoma was more than 100 µM in each case.
On to `CN(C)Cc1cc(C(C)(C)C)cc(CN(C)C)c1O`, for which the TGI in the test with CCRF-CEM leukemia, with EKVX NSCLC, in the test with HT29 colon, in the test with MOLT-4 leukemia, in the test with NCI-H23 lung and in the test on RPMI-8226 leukemia was more than 100 µM in each case. The TGI in the test with RXF 393 renal, with SNB-75 CNS, in the test on U251 CNS and with UACC-62 melanoma was more than 100 µM in each case.
Regarding `COc1ccc(F)cc1-c1ccnc2[nH]c(C3=CCN(C4CCC(CC(=O)O)CC4)CC3)cc12` (stereo unspecified), the GI50 in the test on CCRF-CEM leukemia was 0.13 µM; in the test on EKVX NSCLC, 0.289 µM; with HT29 colon, 0.234 µM; with MOLT-4 leukemia, 0.218 µM; with NCI-H23 lung, 0.185 µM; in the test with RPMI-8226 leukemia, 0.235 µM. Moreover, the GI50 is 0.0413 µM in the test on RXF 393 renal, 0.13 µM in the test on SNB-75 CNS, 0.137 µM in the test on U251 CNS and 0.113 µM in the test with UACC-62 melanoma. The TGI is more than 100 µM with CCRF-CEM leukemia; 40.9 µM in the test with EKVX NSCLC; 3.93 µM in the test with HT29 colon; more than 100 µM with MOLT-4 leukemia; 2.53 µM with NCI-H23 lung; 0.786 µM in the test on RPMI-8226 leukemia. Besides, the TGI was 0.216 µM with RXF 393 renal, 0.381 µM in the test on SNB-75 CNS, more than 100 µM in the test on U251 CNS and 0.371 µM in the test on UACC-62 melanoma.
`COc1cc2c(=O)n(CC3CCCCC3)c3c4cc[nH]c4ncc3c2cc1OC`: the GI50 with CCRF-CEM leukemia was 2.54 µM; with EKVX NSCLC, 5.52 µM; with HT29 colon, 2.85 µM; with MOLT-4 leukemia it was 5.64 µM; with NCI-H23 lung, 6.66 µM; in the test with RPMI-8226 leukemia, 3.1 µM. Besides, the GI50 in the test with RXF 393 renal was 0.407 µM; with SNB-75 CNS it was 0.209 µM; in the test with U251 CNS it was 4.85 µM; with UACC-62 melanoma, 6.01 µM. Further, the TGI in the test on CCRF-CEM leukemia was more than 50 µM; in the test on EKVX NSCLC, more than 50 µM; with HT29 colon it was 15.2 µM; in the test on MOLT-4 leukemia, more than 50 µM; in the test on NCI-H23 lung it was more than 50 µM; in the test with RPMI-8226 leukemia it was more than 50 µM. The TGI is 5.55 µM with RXF 393 renal, 1.9 µM in the test with SNB-75 CNS, 15.7 µM with U251 CNS and more than 50 µM in the test with UACC-62 melanoma.
For `CNc1nc(-c2ccc3c(N)n[nH]c3c2)cc(N2C[C@@H](C(=O)NC3CCCCC3)CC[C@H]2C)n1`, the GI50 in the test with CCRF-CEM leukemia is 1.78 µM; in the test on EKVX NSCLC, 2.12 µM; in the test with HT29 colon it was 2.25 µM; in the test on MOLT-4 leukemia, 1.84 µM; in the test on NCI-H23 lung, 3.69 µM; in the test with RPMI-8226 leukemia, 2.93 µM. In addition, the GI50 with RXF 393 renal was 1.31 µM; in the test with SNB-75 CNS it was 0.457 µM; in the test on U251 CNS, 3.88 µM; in the test on UACC-62 melanoma it was 0.858 µM. The TGI in the test with CCRF-CEM leukemia was more than 48.1 µM; in the test with EKVX NSCLC, 15.4 µM; with HT29 colon it was 17.1 µM; with MOLT-4 leukemia, more than 32.5 µM; with NCI-H23 lung it was 20.1 µM; in the test with RPMI-8226 leukemia, 18.3 µM. Besides, the TGI in the test with RXF 393 renal stood at 8.78 µM; with SNB-75 CNS, 7.23 µM; in the test with U251 CNS, 17.9 µM; in the test on UACC-62 melanoma, 16.3 µM.
For `O=C(/C=C/c1ccc(Cl)cc1Cl)c1ccc(Cl)cc1Cl`, the GI50 in the test with CCRF-CEM leukemia is 9.14 µM; in the test on EKVX NSCLC, 20.6 µM; with HT29 colon, 15.2 µM; in the test with MOLT-4 leukemia, 6.11 µM; in the test with NCI-H23 lung, 20.5 µM; with RPMI-8226 leukemia it was 4.22 µM. Further, the GI50 is 16.7 µM in the test with RXF 393 renal, 40.5 µM with SNB-75 CNS, 14.1 µM with U251 CNS and 1.52 µM in the test with UACC-62 melanoma. For the same compound, the TGI is 32.8 µM with CCRF-CEM leukemia; 58.7 µM in the test with EKVX NSCLC; more than 60.1 µM in the test on HT29 colon; 14.9 µM in the test with MOLT-4 leukemia; 67.2 µM in the test on NCI-H23 lung; 17.8 µM in the test with RPMI-8226 leukemia. The TGI in the test on RXF 393 renal is 36.3 µM; in the test with SNB-75 CNS it was more than 100 µM; in the test with U251 CNS it was 34.1 µM; with UACC-62 melanoma, 12.1 µM.
On to `CS(=O)(=O)CCNCc1ccoc1-c1ccc2ncnc(Nc3ccc(OCc4ccccc4)cc3)c2c1`, for which the GI50 in the test on CCRF-CEM leukemia is 17.7 µM; in the test on EKVX NSCLC, 1.03 µM; in the test with HT29 colon it was 9.55 µM; in the test with MOLT-4 leukemia, 20.1 µM; in the test with NCI-H23 lung it was more than 25 µM; in the test with RPMI-8226 leukemia, more than 25 µM. Moreover, the GI50 is 7.25 µM in the test on RXF 393 renal, more than 7.41 µM with SNB-75 CNS, more than 25 µM in the test with U251 CNS and more than 25 µM in the test on UACC-62 melanoma. In addition, the TGI in the test with CCRF-CEM leukemia, in the test with EKVX NSCLC, in the test with HT29 colon, in the test on MOLT-4 leukemia, with NCI-H23 lung and in the test with RPMI-8226 leukemia was more than 25 µM in each case. The TGI with RXF 393 renal, in the test with SNB-75 CNS, in the test with U251 CNS and in the test with UACC-62 melanoma was more than 25 µM in each case.
Regarding `CCCC(=O)OC(OC(=O)CCC)c1ccc([N+](=O)[O-])o1`, the TGI is more than 100 µM in the test on CCRF-CEM leukemia; 99.6 µM in the test on EKVX NSCLC; 42.8 µM in the test on HT29 colon; 98.4 µM in the test with MOLT-4 leukemia; 48.8 µM in the test on NCI-H23 lung; 49.7 µM with RPMI-8226 leukemia. In addition, the TGI in the test on RXF 393 renal is 54 µM; in the test with SNB-75 CNS, more than 100 µM; in the test with U251 CNS it was more than 100 µM; with UACC-62 melanoma it was 49.1 µM.
With `O=S(=O)(Nc1ccc(Cl)c(Cl)c1)c1ccc(-c2cnc(C3CC3)o2)cc1`, the GI50 with CCRF-CEM leukemia is 0.439 µM; with EKVX NSCLC, 1.15 µM; in the test with HT29 colon, 0.403 µM; in the test with MOLT-4 leukemia it was 0.659 µM; in the test on NCI-H23 lung, 1.33 µM; with RPMI-8226 leukemia, 0.612 µM. Moreover, the GI50 with RXF 393 renal is 0.376 µM; with SNB-75 CNS, 0.138 µM; in the test with U251 CNS, 0.607 µM; in the test on UACC-62 melanoma, 0.433 µM. Moreover, the TGI with CCRF-CEM leukemia was more than 77.5 µM; with EKVX NSCLC, 30.4 µM; with HT29 colon, 16.8 µM; with MOLT-4 leukemia it was more than 63.6 µM; in the test with NCI-H23 lung it was 19.6 µM; with RPMI-8226 leukemia, 43.5 µM. The TGI in the test on RXF 393 renal turned out to be 8.44 µM; in the test with SNB-75 CNS, 0.558 µM; with U251 CNS, 16.3 µM; in the test with UACC-62 melanoma it was 14.5 µM.
